According to patent publication US20200375958A1, “MEMBRANE ACTIVE MOLECULES” (priority 2017, published 2020):
Where two headings read alike, the source gives them in different places.

Assays:
Tadpoles = assay: Tadpole anesthesia test (movement suppressed on contact with rod); type: in vivo
Protocol: Tadpoles were placed in a petri dish containing aquarium water. Four to eight tadpoles were placed in each petri dish. The aquarium water contained the specified test compound at the listed concentration. When the tadpoles stopped moving, a plastic rod was used to elicit motion once again by contact between the rod and tadpole. […] From this and the number of subjects, the percent of tadpoles in which movement was suppressed were calculated.
After 1 to 30 minutes, they were again contacted with a rod to ensure the anesthetic effect had worn off.
In some examples, subanesthetic concentrations of ethanol were added into the aquarium water. Tadpoles in which movement was prevented with exposure to a test compound and ethanol but not with exposure to a test compound alone were classified as partial anesthetics.

mouse = settings: for Effect on the animals: 62.5 mM solution in intralipid; for Effect on the animals / Lethality to the animals: intravenous
Protocol: Butyric acid was dissolved in water to form an 8 M solution. 0.5 mL of the 8 M solution of butyric acid was injected subcutaneously (at the back of the neck) into the mouse.
3-hydroxybutyric acid was dissolved in water to form 1 M, 1.5 M, and 2 M solutions. 0.2 mL of a 1.5 M solution of 3-hydroxybutyric acid was injected into a tail vein of a CD-1 mouse. […] This was repeated for at least 2 more times on subsequent days.
Ethylmalonic acid was dissolved in water to form 2 M, 3 M, and 4 M solutions. 0.2 mL of a 3 M solution of ethylmalonic acid was injected into a tail vein of a mouse. […] This was repeated for at least 2 more times on subsequent days.
Ethylmalonic acid was dissolved in water to form a 4 M solution. 0.5 mL of the 4 M solution of ethylmalonic acid was injected subcutaneously into the mouse.

[1] = read-out: Movement suppressed (%)
[2] = Concentration 62.5 mM in aquarium water

Compound: CCC(O)C(=O)O (centres unmarked) [2-Hydroxybutyric acid, 2-hydroxybutyric acid]
- responders at 125000 µM (Tadpoles; [1]): 0%

Compound: CC(C)(C)CC(=O)O [3,3-Dimethylbutyric acid, 3,3-Dimethylbutanoicacid]
- responders at 25000 µM (Tadpoles; [1]): 100%

Compound: CC(C)(O)CC(=O)O [3-Hydroxy-3-methylbutyric acid, 3-Hydroxy-3-methylbutanoic acid]
- responders at 1600 µM (Tadpoles; [1]): 0%
- responders at 6250 µM (Tadpoles; [1]): 0%
- responders at 25000 µM (Tadpoles; [1]): 0%
- responders at 100000 µM (Tadpoles; [1]): 100%

Compound: CCC(C)C(=O)C(=O)O (centres unmarked) [3-Methyl-2-oxovaleric acid, 3-Methyl-2-oxopentanoic acid]
- responders at 250000 µM (Tadpoles; [1]): 33%

Compound: Cc1cccc(C(=O)NCC(=O)O)c1 [3-Methylhippuric acid, (3-Methylbenzoyl)glycine]
- responders at 3125 µM (Tadpoles; [1]): 0%

Compound: CCC(C)CC(=O)O (centres unmarked) [3-Methylvaleric acid, 3-Methylpentanoic acid]
- responders at 20000 µM (Tadpoles; [1]): 25%

Compound: CC(=O)CCCC(=O)O [4-Acetylbutyric acid, 5-Oxohexanoic acid]
- responders at 25000 µM (Tadpoles; [1]): 0%

Compound: Cc1ccc(C(=O)NCC(=O)O)cc1 [4-Methylhippuric acid, (4-Methylbenzoyl)glycine]
- responders at 50000 µM (Tadpoles; [1]): 0%
- responders at 150000 µM (Tadpoles; [1]): 0%

Compound: CC(C)CCC(=O)O [4-Methylvaleric acid]
- responders at 20000 µM (Tadpoles; [1]): 0%

Compound: O=C(O)CCCCC(=O)O [Adipic acid, Hexanedioic acid]
- responders at 50000 µM (Tadpoles; [1]): 0%

Compound: O=C(NC(O)C(=O)O)c1ccccc1 (stereo not drawn) [Alpha-Hydroxyhippuric acid, 2-Benzamido-2-hydroxyacetic acid]
- responders at 5000 µM (Tadpoles; [1]): 33%
- responders at 10000 µM (Tadpoles; [1]): 100%

Compound: N=C(N)NCCC[C@H](N)C(=O)O [Arginine]
- responders at 46500 µM (Tadpoles; [1]): 0%

Compound: CC(C)(C(=O)O)C(=O)O [Dimethylmalonic acid]
- responders at 125000 µM (Tadpoles; [1]): 60%
- responders at 250000 µM (Tadpoles; [1]): 60%

Compound: CCO [Ethanol control, Ethanol, reference compound]
- responders at 100000 µM (Tadpoles; [1]): 0%
- responders at 150000 µM (Tadpoles; [1]): 0%
- responders at 200000 µM (Tadpoles; [1]): 0%
- responders at 250000 µM (Tadpoles; [1]): 33%

Compound: CCC(C(=O)O)C(=O)O [Ethyl Malonic Acid, 2-Ethylmalonic acid]
- responders at 16000 µM (Tadpoles; [1]): 0%
- responders at 62500 µM (Tadpoles; [1]): 0%
- responders at 125000 µM (Tadpoles; [1]): 100%
- responders at 250000 µM (Tadpoles; [1]): 100%
- Anesthetic effect on the mouse (mouse; 0.2 mL of 3 M solution in water, tail vein): became unconscious
- Anesthetic effect on the mouse (mouse; 0.5 mL of 4 M solution in water, subcutaneous): became sedated, anesthetized, or lose consciousness
- Anesthetic effect on the mouse (mouse; 2 M solution in water, tail vein): did not have any observable effect
- Lethality to the mouse (mouse; 4 M solution in water, tail vein): lethal

Compound: NC(=O)CC[C@H](N)C(=O)O [Glutamine]
- responders at 25000 µM (Tadpoles; [1]): 0%
- responders at 50000 µM (Tadpoles; [1]): 100%
- responders at 100000 µM (Tadpoles; [1]): 100%

Compound: O=C(O)CCCC(=O)O [Glutaric acid]
- responders at 7800 µM (Tadpoles; [1]): 0%
- responders at 31000 µM (Tadpoles; [1]): 0%
- responders at 125000 µM (Tadpoles; [1]): 0%

Compound: O=C(O)Cc1c[nH]c2ccccc12 [Indole-3-acetic acid, 2-(1H-indol-3-yl)acetic acid]
- responders at 12500 µM (Tadpoles; [1]): 0%

Compound: CC[C@H](C)[C@H](N)C(=O)O [Isoleucine]
- responders at 25000 µM (Tadpoles; [1]): 0%

Compound: CC(C)C(C(=O)O)C(=O)O [Isopropyl malonic acid, 2-isopropylmalonic acid]
- responders at 1600 µM (Tadpoles; [1]): 0%
- responders at 6250 µM (Tadpoles; [1]): 0%
- responders at 25000 µM (Tadpoles; [1]): 50%

Compound: O=C(O)c1cc(O)c2ccccc2n1 [Kynurenic acid, 4-hydroxyquinoline-2-carboxylic acid]
- responders at 12500 µM (Tadpoles; [1]): 0%

Compound: NC(=O)C[C@H](N)C(=O)O [L-Asparagine, Asparagine]
- responders at 100000 µM (Tadpoles; [1]): 0%

Compound: N[C@@H](CO)C(=O)O [L-Serine, Serine]
- responders at 114000 µM (Tadpoles; [1]): 0%

Compound: CC(C)[C@H](N)C(=O)O [L-valine, Valine]
- responders at 7800 µM (Tadpoles; [1]): 0%
- responders at 31000 µM (Tadpoles; [1]): 0%
- responders at 125000 µM (Tadpoles; [1]): 0%
- responders at 500000 µM (Tadpoles; [1]): 40%

Compound: O=C(O)C(O)c1ccccc1 (centres unmarked) [Mandelic acid, 2-Hydroxy-2-phenylacetic acid]
- responders at 250000 µM (Tadpoles; [1]): 0%
- responders at 300000 µM (Tadpoles; [1]): 100%
- responders at 500000 µM (Tadpoles; [1]): 100%

Compound: O=C(O)C(=O)Cc1ccccc1 [Phenylpyruvic acid, 2-Oxo-3-phenylpropanoic acid]
- responders at 62500 µM (Tadpoles; [1]): 100%
- responders at 125000 µM (Tadpoles; [1]): 100%

Compound: O=C(O)[C@@H]1CCCN1 [Proline]
- responders at 103000 µM (Tadpoles; [1]): 0%

Compound: O=C(O)c1ccc2ccccc2n1 [Quinaldic acid, Quinoline-2-carboxylic acid]
- responders at 25000 µM (Tadpoles; [1]): 16%

Compound: C[C@@H](O)CC(=O)O [R-3-hydroxybutyric acid, (R)-3 -Hydroxybutanoic acid]
- responders at 100000 µM (Tadpoles; [1]): 0%
- responders at 200000 µM (Tadpoles; [1]): 0%
- responders at 250000 µM (Tadpoles; [1]): 0%
- responders at 300000 µM (Tadpoles; [1]): 0%
- responders at 350000 µM (Tadpoles; [1]): 0%
- responders at 400000 µM (Tadpoles; [1]): 46%
- responders at 500000 µM (Tadpoles; [1]): 100%

Compound: C[C@H](O)CC(=O)O [S-3-hydroxybutyric acid, (S)-3-Hydroxybutanoic acid]
- responders at 100000 µM (Tadpoles; [1]): 0%
- responders at 200000 µM (Tadpoles; [1]): 0%
- responders at 250000 µM (Tadpoles; [1]): 14%
- responders at 300000 µM (Tadpoles; [1]): 17%
- responders at 350000 µM (Tadpoles; [1]): 50%
- responders at 400000 µM (Tadpoles; [1]): 92%
- responders at 500000 µM (Tadpoles; [1]): 100%

Compound: O=C(O)CCCCCCC(=O)O [Suberic acid, Octanedioic acid]
- responders at 10000 µM (Tadpoles; [1]): 50%

Compound: N[C@@H](Cc1c[nH]c2ccccc12)C(=O)O [Tryptophan]
- responders at 12500 µM (Tadpoles; [1]): 0%

Compound: CCOC(=O)C(CC)C(=O)OCC [diethyl ethyl malonate, Diethyl ethyl malonate]
- Effect on the animals (mouse): lethargic and those loss coordination

Compound: CCOC(=O)C(CC)(C(=O)OCC)c1ccccc1 [diethyl ethylphenylmalonate]
- Effect on the animals (mouse): lethargic and those loss coordination
- Lethality to the animals (mouse; 250 mM solution in intralipid): lethal
- Lethality to the animals (mouse; 1M solution in intralipid): lethal

Compound: CCOC(=O)[C@@H](O)c1ccccc1 [ethyl (S)-(+)-mandelate]
- Effect on the animals (mouse): lethargic and those loss coordination
- Lethality to the animals (mouse; 250 mM solution in intralipid): lethal
- Lethality to the animals (mouse; 1M solution in intralipid): lethal

Compound: CCCC(=O)OCC [ethyl butyrate]
- Effect on the animals (mouse): lethargic and those loss coordination
- Lethality to the animals (mouse; 250 mM solution in intralipid): lethal
- Lethality to the animals (mouse; 1M solution in intralipid): lethal

Compound: Fumaric acid
- Movement suppressed (%) (Tadpoles; Concentration 25 mM in aquarium water): 40%
- Movement suppressed (%) (Tadpoles; Concentration (mM) 25 + 150 EtOH): 80%

Compound: Glycine
- Movement suppressed (%) (Tadpoles; Concentration (mM) 250 + 150 EtOH): 100%

Compound: Guanidine
- Movement suppressed (%) (Tadpoles; [2]): 0%
- Movement suppressed (%) (Tadpoles; Concentration (mM) 62.5 + 150 EtOH): 100%

Compound: Succinic acid
- Movement suppressed (%) (Tadpoles; [2]): 0%
- Movement suppressed (%) (Tadpoles; Concentration (mM) 62.5 + 200 EtOH): 66%

Compound: Tartaric acid [L-Tartaric acid]
- Movement suppressed (%) (Tadpoles; Concentration 50 mM in aquarium water): 0%
- Movement suppressed (%) (Tadpoles; Concentration (mM) 50 + 150 EtOH): 100%

Compound: ethyl isovaleric acid
- Effect on the animals (mouse): lethargic and those loss coordination
